In experiment [1] the test system is phosphorylated ERK downstream of KRAS G12C in MIA PaCa2 cells. The experiment in a line: Cell p-ERK detection experiment (HTRF) in MIA PaCa2. It is filed as cell-based, human. Conditions: Homo sapiens, MIA PaCa-2, 2 h, MIA PaCa2 cells, 2 hours with compound, Advance ERK phospho-T202/Y204 HTRF kit; read-out: p-ERK IC50. From the text:
Raw materials and instruments: MIA PaCa-2 purchased from ATCC; article number: CRL-1420; batch number: 63143594; DMEM purchased from Gibco; article number: 11995-065; batch number: 2186878; FBS purchased from Gibco; article number: 10099-141; batch number: 2109290CP; Horse serum purchased from Gibco; article number: 16050-122; batch number: 1818976; Trypsin-EDTA purchased from Gibco; article number: 25200-072; batch number: 2085552; PS purchased from Gibco; article number: 15140-122; batch number: 2145451; DMSO purchased from VWR AMRESCO; article number: 0231-500ML; batch number: 0457C072; 96-well cell culture plate purchased from Corning; article number: 3599; batch number: 22718601; white opaque 96-well plate purchased from Cisbio; article number: 66PL96025; batch number: N°05; Advance ERK phospho-T202/Y204 kit purchased from Cisbio; article number: 64AERPEH; batch number: 11D; microplate reader purchased from PerkinElmer; model: Envision MLD2105-0020; equipment number 1050369.
MIA PaCa2 was a KRAS G12C mutant human pancreatic cancer cell line cultured in 10% FBS+2.5% Horse serum DMEM culture medium. Cells at logarithmic growth stage were taken, digested with trypsin-EDTA, then collected and counted, and 2.5E4 cells were inoculated in a 96-well cell culture plate and cultured overnight. A 3.16-fold gradient concentration stock solution of 1000× compound was prepared with DMSO, and diluted 200-fold to 5× compound stock solution with culture medium. On the second day after cell inoculation, 5× compound stock solution was added to each cell culture well, with a final concentration of 1× and a DMSO content of 0.1%. DMSO was used as experimental control (control). After the compound was added and cultured for two hours, the residual culture medium was removed. 50 μL of cell lysate (from Advance ERK phospho-T202/Y204 kit, the same below) was added to each well, mixed well and incubated for 30 minutes, and then 16 μL of the mixed solution was transferred to a white opaque 96-well plate, and 16 μL of cell lysate was added to the blank wells. After the transfer was completed, 4 μL of p-ERK HTRF antibody (from Advance ERK phospho-T202/Y204 kit) mixture was added to each well, incubated for 4 hours, and the fluorescence value was read with the microplate reader. The inhibition rate of the compound IR (%)=(RLU control -RLU compound)/(RLU control-RLU blank)×100% was calculated. The gradient dilution concentration of the compound and the corresponding cell proliferation inhibition rate were fitted by Prism 8 four-parameter method, and the IC50 value was calculated. The compounds prepared in the above embodiments of the present disclosure have inhibitory activity of 0.0001 μM to 1 μM on the phosphorylated ERK level downstream of the cell channel of KRAS G12C protein mutant; some compounds have inhibitory activity of 0.001 μM to 1 μM or 0.001 μM to 0.5 μM on phosphorylated ERK level downstream of cell channel of KRAS G12C protein mutant.
A general note: In TR-FRET formats the signal depends on donor and acceptor labels being close together.

The next experiment concerns the target T1, KRAS G12C (Homo sapiens, UniProt P01116, G12C).
T1 construct: purchased Reactionbiology
The experiment in a line: KRAS G12C NEA-HTRF experiment (SOS1-catalyzed displacement of GDP by GTP). It is filed as biochemical. The source says:
Raw materials and instruments: KRAS G12C (his-tag) purchased from Reactionbiology; batch number 3496; SOS1 purchased from Reactionbiology; batch number: 3501; GTP purchased from Sigma; article number: G8877; batch number: SLBV1450; Tris-HC1 purchased from Sigma; EDTA purchased from absin; article number: abs42017668; batch number: JE20; NaCl purchased from Sigma; article number: 55886; batch number: SLBW4193; MgCl2 purchased from Shyuanye; article number: R21455; batch number: L07S9G69806; HEPES purchased from Life Technologies; article number: 15630-080; batch number: 2037042; DTT purchased from Thermo Fisher; article number: R0862; batch number: 00608918; Triton X-100 purchased from Sigma; article number: T8787-100 ML; batch number: SLBW7103; DY647-labeled GDP purchased from Jena Bioscience; article number: NU-840-647P1; batch number: BM019-045; Anti-6H1S-Tb purchased from Cisbio; article number: 61H12TLA; batch number: 13A; Bradford Assay Kit purchased from Thermo Fisher; article number: 23246; batch number: UG287474; white opaque 96-well plate purchased from Cisbio; article number: 66PL96025; batch number: N°06; NAP-5 column purchased from GE Healthcare; article number: 17085301; batch number: 16995164; mircoplate reader purchased from PerkinElmer; model: Envision MLD2105-0020; equipment number 1050369. The effect of compounds on SOS1-catalyzed displacement of GDP by GTP on KRAS protein was examined using a homogeneous time-resolved fluorescence (HTRF) method. 30 μM 6×his-tagged KRAS G12C recombinant protein was incubated with 80 μM fluorescent dye DY647-labeled GDP in labeling buffer (1 mM DTT, 7.5 mM EDTA, 25 mM Tris-HCl, 45 mM NaCl) at 20° C. in the dark for 2 hours, purified using NAP-5 column, and then protein quantification was performed with Bradford Assay Kit after purification to determine the concentration of KRAS […] 3.16-fold gradient concentration stock solution of 1000× compound was prepared with DMSO, and diluted 250-fold to 4× compound stock solution with reaction buffer (40 mM HEPES, 10 mM MgCl2, 1 mM DTT, 0.002% Triton X-100). KRAS G12C-GDP/Tb working solution (40 nM KRAS […] Tb) and SOS1/GTP working solution (0.2 μM SOS1, 200 μM GTP) were prepared using the reaction buffer. A white opaque 96-well plate was taken, and 5 μL of 4× compound stock solution and 10 μL of KRAS G12C-GDP/Tb working solution were added to each well. 5 μL of reaction buffer instead of 4x compound stock solution was used in the control well. After incubation in the dark for 15 minutes at 20° C., 5μL of SOS1/GTP working solution was added thereto, and the fluorescence value (excitation wavelength: 320 nm, emission wavelength: 615 nm and 665 nm) was read after incubating at 20° C. in the dark for 2 hours. Another T0 group was set up with 10 μL reaction buffer+10 μL KRAS G12C-GDP/Tb working solution, and the fluorescence value was read directly by the microplate reader. The fluorescence signal ratio RLU=(665 nm signal/615 nm signal)×10^4; and the compound inhibition rate IR (%)=(RLUcompound-RLUcontrol)/(RLUT0-RLUcontrol)×100% were calculated. The IC50 value was calculated by fitting the gradient dilution concentration of compound and the corresponding inhibition rate with the four-parameter method. The NEA activity of the compounds prepared in the above embodiments of the present disclosure was 0.0001 μM to 1 μM; the inhibitory activity of some compounds on KRAS G12C mutant MIA PaCa-2 cells was 0.001 μM to 0.5 μM or 0.001 μM to 0.1 μM.

The subject of experiment [2] is KRAS G12C mutant NCI-H358 cells. The experiment in a line: Cell proliferation inhibition experiment, 3D spheroid, CellTiter-Glo, NCI-H358. It is filed as cell-based, human. Conditions: Homo sapiens, NCI-H358, 120 h, NCI-H358 (KRAS G12C mutant) 3D spheroid, 5 days with compound, CellTiter-Glo; read-out: H358 IC50. A digest of the protocol:
(§1)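 NCI-H358 (800 cells/well, RPMI-1640) and A549 (400 cells/well, F-12K) grown overnight as 3D spheroids in 2% FBS medium, then exposed 5 days to 3.16-fold compound dilutions at 0.1% DMSO. Viability measured by CellTiter-Glo luminescence; inhibition relative to DMSO and medium blank, IC50 from four-parameter fit.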
A general note: In ATP-based viability assays light output follows the ATP content of the culture.

Experiment [3] has as its system A549 cells (KRAS G12S mutant). The experiment in a line: Cell proliferation inhibition experiment, 3D spheroid, CellTiter-Glo, A549. As to conditions: Homo sapiens, A549, 120 h, A549 (KRAS G12S mutant) 3D spheroid, 5 days with compound, CellTiter-Glo; read-out: A549 IC50. Format: cell-based, human. A digest of the protocol:
as §1

T1 sequence (P01116 1-188 isoform P01116-2 G12C): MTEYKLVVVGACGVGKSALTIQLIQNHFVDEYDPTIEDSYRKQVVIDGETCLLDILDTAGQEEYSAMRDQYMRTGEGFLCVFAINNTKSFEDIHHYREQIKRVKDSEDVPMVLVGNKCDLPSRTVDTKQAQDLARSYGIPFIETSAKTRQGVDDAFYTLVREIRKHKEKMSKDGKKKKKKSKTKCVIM

Take `C=CC(=O)N1CCN2C(=O)c3c(N4C[C@H](C)N(C)C[C@@H]4C)nc(-c4ccccc4F)c(Cl)c3OC[C@H]2C1` [Z483, (R)-8-acryloyl-4-chloro-3-(2-fluorophenyl)-1-((2S,5S)-2,4,5-trimethylpiperazin-1-yl)-6,6a,7,8,9,10-hexahydro-12H-pyrazino[2,1-c]pyrido[3,4-f][1,4]oxazepin-12-one]: the results for the IC50 (in experiment [1]; at KRAS G12C) were 260 nM and 340 nM, respectively.

Take `C=CC(=O)N1CCN2C(=O)c3c(N4C[C@@H](N5CC(F)C5)CC4(C)C)nc(-c4ccccc4F)c(F)c3OC[C@H]2C1` [Z654-1, (R)-8-acryloyl-4-fluoro-1-((S)-4-(3-fluoroazetidin-1-yl)-2,2-dimethylpyrrolidin-1-yl)-3-(2-fluorophenyl)-6,6a,7,8,9,10-hexahydro-12H-pyrazino[2,1-c]pyrido[3,4-f][1,4]oxazepin-12-one]: the IC50 in experiment [1] stood at 1720 nM; on KRAS G12C, 1820 nM.

Consider `C=CC(=O)N1CCN2C(=O)c3c(N4CC(N5CC(C(F)(F)F)C5)CC4(C)C)nc(-c4ccccc4F)c(Cl)c3OC[C@H]2C1` (single isomer, unassigned) [Z608-2], for which the values for the IC50 (in experiment [1]; at KRAS G12C) were 286 nM and 75.8 nM, respectively.

Consider `C=CC(=O)N1CCN2C(=O)c3c(N4CC(N(C)CC)CC4(C)C)nc(-c4ccccc4F)c(Cl)c3OC[C@H]2C1` (stereo partly drawn) [Z657, (6aR)-8-acryloyl-4-chloro-1-(4-(methylethylamine)-2,2-dimethylpyrrolidin-1-yl)-3-(2-fluorophenyl)-6,6a,7,8,9,10-hexahydro-12H-pyrazino[2,1-c]pyrido[3,4-f][1,4]oxazepin-12-one], for which the IC50 in experiment [1] was found to be 93 nM; on KRAS G12C, 31.5 nM.

On to `C=CC(=O)N1CCN2C(=O)c3c(N4C[C@H](NCC(F)(F)F)CC4(C)C)nc(-c4ccccc4F)c(Cl)c3OC[C@H]2C1` (single isomer, unassigned) [Z662-2], for which the IC50 was found to be 586 nM in experiment [1] and 235 nM on KRAS G12C.

Turning to `C=CC(=O)N1CCN2C(=O)c3c(N4CCN5CCCC5(C)C4)nc(-c4c(O)cccc4F)c(Cl)c3OC[C@H]2C1` (stereo partly drawn) [Z339, (6aR)-8-acryloyl-4-chloro-3-(2-fluoro-6-hydroxyphenyl)-1-(8a-methyloctahydropyrrolo[1,2-c]pyrazin-6 (2H)-one-1-yl)-6,6a,7,8,9,10-hexahydro-12H-pyrazino[2,1-c]pyrido[3,4-f][1,4]oxazepin-12-one], the IC50 worked out at 29 nM in experiment [2] and 143 nM in experiment [1].

Take `C=CC(=O)N1CCN2C(=O)c3c(N4CCCC4(C)C)nc(-c4ccccc4F)c(Cl)c3OC[C@H]2C1` [Z147, (R)-8-acryloyl-4-chloro-1-(2,2-dimethylpyrrolidin-1-yl)-3-(2-fluorophenyl)-6,6a,7,8,9,10-hexahydro-12H-pyrazino[2,1-c]pyrido[3,4-f][1,4]oxazepin-12-one]: the IC50 in experiment [2] stood at 22 nM; in experiment [1], 180 nM.

`C=CC(=O)N1CCN2C(=O)c3c(N4CCN5CCC[C@@H]5C4)nc(-c4c(O)cccc4F)c(Cl)c3OC[C@H]2C1` [Z317-2, (6aR)-8-acryloyl-4-chloro-3-(2-fluoro-6-hydroxyphenyl)-1-((R)-hexahydropyrrolo[1,2-a]pyrazin-2(1H)-yl)-6,6a,7,8,9,10-hexahydro-12H-pyrazino[2,1-c]pyrido[3,4-f][1,4]oxazepin-12-one]: the results for the IC50 in experiment [2] and in experiment [1] were 23.7 nM and 162 nM, respectively.

With `C=CC(=O)N1CCN2C(=O)c3c(Oc4ccccc4C(C)C)nc(-c4c(O)cccc4F)c(Cl)c3OC[C@H]2C1` [Z18, (6aR)-8-acryloyl-4-chloro-3-(2-fluoro-6-hydroxyphenyl)-1-(2-isopropylphenoxy)-6,6a,7,8,9,10-hexahydro-12H-pyrazino[2,1-c]pyrido[3,4-f][1,4]oxazepin-12-one], the IC50 is 7 nM in experiment [2], 73 nM in experiment [1] and 8680 nM in experiment [3].

In general, IC50 refers to the point on the concentration scale where inhibition reaches its midpoint.

The values are drawn from patent US20230203060A1 (GENFLEET THERAPEUTICS (SHANGHAI) INC., priority 2020, published 2023).
